Usually LD50 stands for the dose at which mortality reaches 50%. Low values mean greater toxicity, high ones lower toxicity.

We go through one molecule from patent EP0193257A1, “Control of micro-organisms in water-containing compositions” (NIPA LABORATORIES, LTD., priority 1985, dated 1986).

Bounds are passed on as bounds.

One data set in a line: Acute oral toxicity. The note with it: rat, in vivo, rats. The source says: It is important that preservatives added to toiletry, household and pharmaceutical products have a low order of toxicity.
Data set [1] concerns mixed culture of 7 strains of Gram negative bacteria. Put plainly: Survivor plate count in shampoo formulation after challenge. In kind it is cell-based. The note with it: shampoo with 0.20% of 30% DCHB in propylene glycol (0.06% active DCHB). The protocol: A shampoo formulation was prepared to the following formula: […]
Various additions were made to portions of this shampoo in sterile bottles under aseptic conditions, as follows: • 1. 0.20% of 30% DCHB in propylene glycol (0.06% active DCHB) • 2. 0.20% of 30% DCHB in propylene glycol + 0.05% citric acid • 3. 0.05% citric acid (control 1) • 4. No addition (control 2)
Each of these systems was inoculated with a mixed culture of 7 strains of Gram negative bacteria, at an initial inocullum level of 9.0x10^7 colony forming units per g. At 30 mins, 1 hour, 2 hours, 6 hours, 24 hours and 7 days after inoculation the total number of survivors in each sample portion were determined by serial dilution and plate counting; with the following results: […]

The nature of data set [2]: Storage stability in shampoos, aqueous solutions and creams. The data set is classed as physicochemical. The following applies: 0.3% (w/w) in shampoos, 25°C, in the light and in dark, seven months. On the procedure:
Samples of shampoos, aqueous solutions and creams with and without addition of DCHB at 0.3% (w/w) have been stored at 25°C, in the light and in dark, for seven months and have been assessed for visual colour change and for DCHB content, by UV analysis, at regular intervals.

Data set [3] deals with mixed culture of 6 species of Gram negative bacteria. Put plainly: Survivor plate count in commercial shampoo after challenge. In kind it is cell-based. The protocol:
A sample of a commercial shampoo preparation (without preservative) was divided into three portions and, to a first portion of this shampoo, the following preservative system was added: • 0.3% (w/w) of a 30% w/w solution of DCHB in propylene glycol (resulting in a concentration of 0.09% of active DCHB).
To a further portion of the unpreserved shampoo, 0.3% (w/w) propylene glycol alone was added to ensure any observed bactericidal effect was due to DCHB.
20g portions of the unpreserved shampoo and the shampoo with the above additions were inoculated with 0.4 ml of a mixed culture of 6 species of Gram negative bacteria (including an isolate from a contaminated shampoo) to give an initial inoculum level of 2.14 x 10^7 colony forming units per g.
The inoculated samples were mixed by Vortex mixer and stored at room temperature. At regular timed intervals after challenge the total number of survivors in each sample portion were determined by serial dilution and plate counting (Nutrient Agar, 32°C) with the following results: […]

The nature of data set [4]: Antimicrobial activity in the presence of proteins. The following applies: proteins such as serum and soluble collagen.
The mark [5] stands for this setting: commercial shampoo + 0.3% of 30% DCHB in propylene glycol (0.09% active DCHB).

The molecule `O=Cc1cc(Cl)c(O)c(Cl)c1` [DCHB, 3,5-Dichloro-4-hydroxybenzaldehyde] registered a median lethal dose (LD50) in the data set “Acute oral toxicity” of more than 5000 mg/kg. For the same molecule, in data set [1], the “Mixed culture - colony forming units/g after: 1 hour” value is 3.0x10^6 colony forming units/g, the “Mixed culture - colony forming units/g after: 2 hours” value is 6.6x10^5 colony forming units/g, the “Mixed culture - colony forming units/g after: 6 hours” value is listed as 7.0x10^5 colony forming units/g and the “Mixed culture - colony forming units/g after: 24 hours” value is listed as 8.4x10^4 colony forming units/g. Besides, in data set [1], the “Mixed culture - colony forming units/g after: 7 days” value is listed as 10 colony forming units/g. Moreover, the “Mixed culture - colony forming units/g after: 30 mins” value in data set [1] (initial inoculum 9.0x10^7 colony forming units per g) is listed as 3.9x10^6 colony forming units/g. In data set [2], the “DCHB content, by UV analysis (UV absorption readings)” value is recorded as “no significant change” and the visual colour change entry is reported as “no colour changes”. In addition, in data set [3] (setting [5]), the “Gram negative bacteria - Mixed Culture Colony forming units/g after: 1 day” value is on record as less than 10 Colony forming units/g, the “Gram negative bacteria - Mixed Culture Colony forming units/g after: 7 days” value is given as less than 10 Colony forming units/g, the “Gram negative bacteria - Mixed Culture Colony forming units/g after: 14 days” value is given as less than 10 Colony forming units/g and the “Gram negative bacteria - Mixed Culture Colony forming units/g after: 28 days” value was less than 10 Colony forming units/g. Further, in data set [3] (commercial shampoo + 0.3% of 30% DCHB in propylene glycol (0.09% active DCHB), initial inoculum 2.14 x 10^7 colony forming units per g), the “Gram negative bacteria - Mixed Culture Colony forming units/g after: 3 hours” value is reported as 9.0x10^6 Colony forming units/g. Moreover, in data set [3] (shampoo containing 0.3 % of 30 % DCHB in propylene glycol), the “bactericidal effect against normally resistant gram negative bacteria” value was “rapid and satisfactory bactericidal effect”. For the same molecule, in data set [4], the “antimicrobial activity in the presence of proteins” value was “retaining antimicrobial activity”.
